This data set has as its system green peach aphids (Myzus persicae). Nature of the data set: LC50 biological efficacy assay on green peach aphids, aerosolized dilutions on infested radish leaves. It is filed as in vivo. The settings on record: for LC50: concentration for 50% control over 24-48 hours, infested radish leaves, 500 μl aerosolized dilution; for control of green peach aphids (in words): summary of Table 1. The method, then: Biological efficacy assays utilizing terpendoles were conducted on green peach aphids (Myzus persicae). Specifically, terpendole A, terpendole C, terpendole J, terpendole K, terpendole N, terpendole O and terpendole P were each separately applied in serial dilutions to determine the concentration at which 50% control of green peach aphids occurred over a period of 24-48 hours (“LC50”). Radish leaves infested with green peach aphids were treated, top and bottom, with a total of 500 μl of an aerosolized terpendole dilution. Treated, aphid infested leaves were held in greenhouse conditions and evaluated for efficacy at 24 and 48 h.

These results are taken from patent US10729135B2, “Methods of controlling pests using terpendoles” (priority 2017, dated 2020).

One may read the LC50 as the concentration lethal to half of the exposed cells or organisms. Read a high LC50 as lower toxicity. Turning to `CC1(C)OC1[C@H]1O[C@H]2[C@H]3O[C@@]34[C@H](CC[C@@]3(C)[C@@]4(O)CC[C@H]4Cc5c([nH]c6ccccc56)[C@@]43C)O[C@@H]2C(C)(C)O1` (stereo partly drawn) [Terpendole A, terpendole A], the LC50 is on record as 7 ppm and the “control of green peach aphids (in words)” value is “effectively controlled”.
For `CC(C)=CCOC(C)(C)[C@H]1O[C@H]2CC[C@@]3(C)[C@@](O)(CC[C@H]4Cc5c([nH]c6ccccc56)[C@@]43C)[C@]23O[C@@H]3[C@@H]1O` [Terpendole J, terpendole J] the same measures were 5,183 ppm and “effectively controlled”.
The matching figures for `CC(C)=C[C@H]1O[C@H]2[C@H]3O[C@@]34C(=CC[C@@]3(C)[C@@]4(O)CC[C@H]4Cc5c([nH]c6ccccc56)[C@@]43C)O[C@@H]2C(C)(C)O1` [Terpendole K, terpendole K]: 44 ppm and “effectively controlled”.
For `CC(C)=C[C@@H]1O[C@H]2[C@@H](O[C@@H]3CC[C@]4(C)[C@](O)(CC[C@H](CC5(O)C(=O)Nc6cccc(CC7OC7(C)C)c65)[C@@]4(C)O)[C@@]34O[C@@H]24)C(C)(C)O1` (stereo partly drawn) [Terpendole N, terpendole N] the same measures were 4 ppm and “effectively controlled”.
For `CC(C)=CCc1cccc2[nH]c3c(c12)C[C@@H]1CC[C@@]2(O)[C@@]45O[C@@H]4[C@@H]4O[C@H](C6OC6(C)C)OC(C)(C)[C@H]4O[C@H]5CC[C@]2(C)[C@@]31C` (stereo partly drawn) [Terpendole O, terpendole O], the LC50 is given as 105 ppm and the “control of green peach aphids (in words)” value was “effectively controlled”.
With `CC(C)=CCc1ccc2c3c([nH]c2c1)[C@@]1(C)[C@@H](CC[C@@]2(O)[C@@]45O[C@@H]4[C@@H]4O[C@H](C6OC6(C)C)OC(C)(C)[C@H]4O[C@H]5CC[C@@]21C)C3` (stereo partly drawn) [Terpendole P, terpendole P], the LC50 was 67 ppm and the “control of green peach aphids (in words)” value is recorded as “effectively controlled”.
